Source: BigSolDB 2.1

COc1cccc(C=O)c1O
solubility (mole fraction)
Conditions	273.15 K	278.15 K	283.15 K	288.15 K	293.15 K	298.15 K	303.15 K
in ethanol	0.0401	0.0526	0.0774	0.138	0.226	0.38	0.615
in n-propanol	0.0312	0.0388	0.0552	0.0807	0.134	0.299	0.554
in water	–	0.000268	0.000332	0.0004	0.000496	0.000578	0.000786
